Calls of active or inactive are those of the source. No rule for the calls is given here.
System: rodent carcinogenicity bioassays, tumor incidence
Experiment: CCRIS carcinogenicity studies
Method in brief: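 NCI-built, expert-reviewed records of carcinogenicity and related test outcomes (mutagenicity, tumor promotion/inhibition) compiled from published and report sources, historical span 1985-2011, not updated.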

CN(Cc1ccccc1)N=O
carcinogen call (Species: MOUSE, Strain/Sex: CD-1/MALE, FEMALE, Route: INTRAPERITONEAL, Dose: 0, 4 MG/KG 2/WK FOR 12 WK, 8 MG/KG 2/WK FOR 6 WK, 16 MG/KG 2/WK FOR 3 WK FOR TOTAL DOSES OF 96 MG/KG (STUDY DURATION: 40, Dose: 0, 4 MG/KG 2/WK FOR 12 WK, 8 MG/KG 2/WK FOR 6 WK, 16 MG/KG 2/WK FOR 3 WK FOR TOTAL DOSES OF 96 MG/KG (STUDY DURATION: 40, Tumor Site: Type of Lesion: FORESTOMACH: PAPILLOMA, CARCINOMA): active; positive | carcinogen call (Species: RAT, Strain/Sex: SPRAGUE-DAWLEY/MALE, Route: GAVAGE, Dose: 0, 0.5, 2 MG/KG IN SALINE ONCE ADMINISTERED TO RATS MAINTAINED ON ZINC-DEFICIENT DIET (STUDY DURATION: 14 WK), Dose: 0, 0.5, 2 MG/KG IN SALINE ONCE ADMINISTERED TO RATS MAINTAINED ON ZINC-DEFICIENT DIET (STUDY DURATION: 14 WK), Tumor Site: Type of Lesion: ESOPHAGUS: TUMOR): active; positive

[P]#[Ga]
carcinogen call (Species: MOUSE, Strain/Sex: ICR/MALE, Route: INTRAPERITONEAL, Dose: 0, 48, 480 MG/KG AS GALLIUM SUSPENDED IN OLIVE OIL ONCE (STUDY DURATION: 18 MO), Dose: 0, 48, 480 MG/KG AS GALLIUM SUSPENDED IN OLIVE OIL ONCE (STUDY DURATION: 18 MO)): inactive; negative | carcinogen call (Species: MOUSE, Strain/Sex: ICR/MALE, Route: SUBCUTANEOUS, Dose: 0, 48, 480 MG/KG AS GALLIUM SUSPENDED IN OLIVE OIL ONCE (STUDY DURATION: 18 MO), Dose: 0, 48, 480 MG/KG AS GALLIUM SUSPENDED IN OLIVE OIL ONCE (STUDY DURATION: 18 MO)): inactive; negative

CN(C)c1ccc(Cc2ccc(N(C)C)cc2)cc1
carcinogen call (Species: MOUSE, Strain/Sex: B6C3F1/FEMALE, Route: ORAL, Dose: 0, 1250, 2500 PPM IN DIET FOR 78 WK (STUDY DURATION: 91 WK), Dose: 0, 1250, 2500 PPM IN DIET FOR 78 WK (STUDY DURATION: 91 WK), Tumor Site: Type of Lesion: LIVER: HEPATOCELLULAR ADENOMA OR CARCINOMA): active; positive | carcinogen call (Species: MOUSE, Strain/Sex: B6C3F1/MALE, Route: ORAL, Dose: 0, 1250, 2500 PPM IN DIET FOR 78 WK (STUDY DURATION: 91 WK), Dose: 0, 1250, 2500 PPM IN DIET FOR 78 WK (STUDY DURATION: 91 WK), Tumor Site: Type of Lesion: LIVER: HEPATOCELLULAR ADENOMA OR CARCINOMA): equivocal | carcinogen call (Species: RAT, Strain/Sex: F344/FEMALE, Route: ORAL, Dose: 0, 0.0375, 0.075% IN DIET FOR 59 WK (STUDY DURATION: 2 YR), Dose: 0, 0.0375, 0.075% IN DIET FOR 59 WK (STUDY DURATION: 2 YR), Tumor Site: Type of Lesion: THYROID GLAND: FOLLICULAR CARCINOMA): active; positive | carcinogen call (Species: RAT, Strain/Sex: F344/FEMALE, Route: ORAL, Dose: 0, 375, 750 PPM IN DIET FOR 59 WK (STUDY DURATION: 104 WK), Dose: 0, 375, 750 PPM IN DIET FOR 59 WK (STUDY DURATION: 104 WK), Tumor Site: Type of Lesion: THYROID GLAND: FOLLICULAR CELL ADENOMA OR CARCINOMA): active; positive | carcinogen call (Species: RAT, Strain/Sex: F344/MALE, Route: ORAL, Dose: 0, 0.0375, 0.075% IN DIET FOR 59 WK (STUDY DURATION: 2 YR), Dose: 0, 0.0375, 0.075% IN DIET FOR 59 WK (STUDY DURATION: 2 YR), Tumor Site: Type of Lesion: THYROID GLAND: FOLLICULAR CARCINOMA): active; positive | carcinogen call (Species: RAT, Strain/Sex: F344/MALE, Route: ORAL, Dose: 0, 375, 750 PPM IN DIET FOR 59 WK (STUDY DURATION: 104 WK), Dose: 0, 375, 750 PPM IN DIET FOR 59 WK (STUDY DURATION: 104 WK), Tumor Site: Type of Lesion: THYROID GLAND: FOLLICULAR CELL ADENOMA OR CARCINOMA): active; positive

c1ccc2c(c1)ccc1cc3ccc4c(c3nc12)[C@H]1O[C@H]1CC4
carcinogen call (Species: MOUSE, Strain/Sex: CD-1/FEMALE, Route: INTRAPERITONEAL, Dose: 0, 28 NMOL (TOTAL DOSE) ADMINISTERED AS 1/7 OF DOSE WITHIN 24 HR AFTER BIRTH, 2/7 OF DOSE AT 8 D OLD, 4/7 OF DOSE AT 15, Tumor Site: Type of Lesion: LUNG: TUMOR): active; positive | carcinogen call (Species: MOUSE, Strain/Sex: CD-1/MALE, Route: INTRAPERITONEAL, Dose: 0, 28 NMOL (TOTAL DOSE) ADMINISTERED AS 1/7 OF DOSE WITHIN 24 HR AFTER BIRTH, 2/7 OF DOSE AT 8 D OLD, 4/7 OF DOSE AT 15, Tumor Site: Type of Lesion: LIVER: TUMOR, LUNG: TUMOR): active; positive

ClC(Cl)C(Cl)(Cl)Cl
carcinogen call (Species: MOUSE, Strain/Sex: B6C3F1/FEMALE, Route: GAVAGE, Dose: 250, 500 MG/KG IN CORN OIL FOR 41-103 WK (STUDY DURATION: 41-103 WK), Tumor Site: Type of Lesion: LIVER: HEPATOCELLULAR ADENOMA, CARCINOMA): active; positive | carcinogen call (Species: MOUSE, Strain/Sex: B6C3F1/MALE, Route: GAVAGE, Dose: 250, 500 MG/KG IN CORN OIL FOR 41-103 WK (STUDY DURATION: 41-103 WK), Tumor Site: Type of Lesion: LIVER: HEPATOCELLULAR CARCINOMA): active; positive | carcinogen call (Species: RAT, Strain/Sex: F344/FEMALE, Route: GAVAGE, Dose: 0, 75, 150 MG/KG IN CORN OIL FOR 103 WK (STUDY DURATION: 103 WK), Dose: 0, 75, 150 MG/KG IN CORN OIL FOR 103 WK (STUDY DURATION: 103 WK)): inactive; negative | carcinogen call (Species: RAT, Strain/Sex: F344/MALE, Route: GAVAGE, Dose: 0, 75, 150 MG/KG IN CORN OIL FOR 103 WK (STUDY DURATION: 103 WK), Dose: 0, 75, 150 MG/KG IN CORN OIL FOR 103 WK (STUDY DURATION: 103 WK), Tumor Site: Type of Lesion: KIDNEY: TUBULAR CELL ADENOMA): equivocal

Cc1c(N(C)CS(=O)(=O)O)c(=O)n(-c2ccccc2)n1C
carcinogen call (Species: MOUSE, Strain/Sex: B6C3F1/FEMALE, Route: ORAL, Dose: 0, 0.25, 1% IN DRINKING WATER FOR 78 WK (STUDY DURATION: 86 WK), Dose: 0, 0.25, 1% IN DRINKING WATER FOR 78 WK (STUDY DURATION: 86 WK), Tumor Site: Type of Lesion: LIVER: ADENOMA): active; positive | carcinogen call (Species: MOUSE, Strain/Sex: B6C3F1/MALE, Route: ORAL, Dose: 0, 0.125, 0.5% IN DRINKING WATER FOR 78 WK (STUDY DURATION: 86 WK), Dose: 0, 0.125, 0.5% IN DRINKING WATER FOR 78 WK (STUDY DURATION: 86 WK), Tumor Site: Type of Lesion: LIVER: ADENOMA): active; positive | carcinogen call (Species: RAT, Strain/Sex: F344/MALE, Route: ORAL, Dose: 0.4% IN DRINKING WATER FOR 72 WK (STUDY DURATION: 83 WK)): inactive; negative | carcinogen call (Species: RAT, Strain/Sex: WISTAR/FEMALE, Route: ORAL, Dose: 0, 1000, 3000 PPM IN DIET FOR 24 MO (STUDY DURATION: 30 MO), Dose: 0, 1000, 3000 PPM IN DIET FOR 24 MO (STUDY DURATION: 30 MO)): inactive; negative | carcinogen call (Species: RAT, Strain/Sex: WISTAR/MALE, Route: ORAL, Dose: 0, 1000, 3000 PPM IN DIET FOR 24 MO (STUDY DURATION: 30 MO), Dose: 0, 1000, 3000 PPM IN DIET FOR 24 MO (STUDY DURATION: 30 MO)): inactive; negative

CC1CN1 (stereo not drawn)
carcinogen call (Species: RAT, Strain/Sex: STRAIN-CD/FEMALE, Route: GAVAGE, Dose: 10.5, 20.7 MG/KG (AVE DOSE) IN WATER 2/WK FOR 58 WK (LOW DOSE) OR 27 WK (HIGH DOSE), Tumor Site: Type of Lesion: INTESTINES: ADENOCARCINOMA, BRAIN (CEREBRUM): GLIOMA, EAR (DUCT): SQUAMOUS CELL CARCINOMA, MAMMARY GLAND: ADENOCARCINOMA, Tumor Site: Type of Lesion: INTESTINES: ADENOCARCINOMA, BRAIN (CEREBRUM): GLIOMA, EAR (DUCT): SQUAMOUS CELL CARCINOMA, MAMMARY GLAND: ADENOCARCINOMA): active; positive | carcinogen call (Species: RAT, Strain/Sex: STRAIN-CD/MALE, Route: GAVAGE, Dose: 10.5, 20.7 MG/KG (AVE DOSE) IN WATER 2/WK FOR 58 WK (LOW DOSE) OR 27 WK (HIGH DOSE), Tumor Site: Type of Lesion: HEMATOPOIETIC SYSTEM (LEUKEMIA): GRANULOCYTIC LEUKEMIA, BRAIN (CEREBRUM): GLIOMA, EAR (DUCT): SQUAMOUS CELL CARCINOMA, I, Tumor Site: Type of Lesion: HEMATOPOIETIC SYSTEM (LEUKEMIA): GRANULOCYTIC LEUKEMIA, BRAIN (CEREBRUM): GLIOMA, EAR (DUCT): SQUAMOUS CELL CARCINOMA, I): active; positive

Reference: PubChem BioAssay AID1259411 (Chemical Carcinogenesis Research Information System (CCRIS), 2018)
